Measurements as given in ChEMBL document CHEMBL1150088, “Bioactive Guanidine Alkaloids from Pterogyne nitens” (J Nat Prod, 1995).
Values after ≈ are worked out from the molar mass of the structure shown.

Key:
[1] = Cytotoxicity against CHOAUXB1 cells; format: cell-based; conditions: Cricetulus griseus
Saccharomyces cerevisiae [2] = experiment: DNA damaging activity against RS322YK rad52Y DNA repair gene deficient Saccharomyces cerevisiae mutant assessed as drug level required to produce 12 mm zone of inhibition after 48 hrs; format: functional
Saccharomyces cerevisiae [3] = experiment: DNA damaging activity against RS167N rad6 DNA repair gene deficient Saccharomyces cerevisiae mutant assessed as drug level required to produce 12 mm zone of inhibition after 48 hrs; format: functional
Saccharomyces cerevisiae [4] = experiment: DNA damaging activity against RS188N rad DNA repair gene expressing Saccharomyces cerevisiae assessed as drug level required to produce 12 mm zone of inhibition after 48 hrs; format: functional
Saccharomyces cerevisiae [5] = experiment: DNA damaging activity against RS321 DNA repair gene deficient Saccharomyces cerevisiae mutant assessed as drug level required to produce 12 mm zone of inhibition after 48 hrs; format: functional

| Compound | IC50 [1] | IC12 (Saccharomyces cerevisiae [2]) | IC12 (Saccharomyces cerevisiae [3]) | IC12 (Saccharomyces cerevisiae [4]) | IC12 (Saccharomyces cerevisiae [5]) |
| --- | --- | --- | --- | --- | --- |
| CC[C@@]1(O)C(=O)OCc2c1cc1n(c2=O)Cc2cc3ccccc3nc2-1 [CAMPTOTHECIN] | 0.016 µg/mL (≈ 0.0459 µM) | 0.6 µg/mL | 8.7 µg/mL | – | – |
| CC(C)=CCC/C(C)=C/CNC(=N)NC/C=C(\C)CCC=C(C)C [NITENSIDINE A] | 13 µg/mL (≈ 39.2 µM) | > 1000 µg/mL | > 8000 µg/mL | > 1000 µg/mL | 6 µg/mL |
| CC(C)=CCC/C(C)=C/CN(C/C=C(\C)CCC=C(C)C)C(=N)N [NITENSIDINE B] | 9.3 µg/mL (≈ 28.1 µM) | > 500 µg/mL | > 8000 µg/mL | > 1000 µg/mL | 10 µg/mL |
| CC(C)=CCC/C(C)=C/CN(C)C(=N)N(C)C/C=C(\C)CCC=C(C)C [NITENSIDINE C] | 20 µg/mL (≈ 55.6 µM) | > 8000 µg/mL | > 8000 µg/mL | > 8000 µg/mL | 13 µg/mL |
| CC(C)=CCNC(=N)NCC=C(C)C [PTEROGYNIDINE] | – | > 1000 µg/mL | > 1000 µg/mL | > 1000 µg/mL | 8.5 µg/mL |
| COC1=C(N)C(=O)c2nc(-c3nc(C(=O)O)c(C)c(-c4ccc(OC)c(OC)c4O)c3N)ccc2C1=O [STREPTONIGRIN] | – | 0.4 µg/mL | 2.4 µg/mL | – | – |
